Counter-ions that a name gives are not always drawn.
melting point [°C] | Structure (SMILES)
77 to 78 | CC(C)(CO)NC(=O)COc1cc(Cl)ccc1C(=O)NCCN1CCN(Cc2ccc(Cl)c(Cl)c2)CC1 [Example 5, 4-Chloro-N-{2-[4-(3,4-dichlorobenzyl)-1-piperazinyl]ethyl}-2-{2[(2-hydroxy-1,1-dimethylethyl)amino]-2-oxoethoxy}benzamide]
162 to 163 | CN(C)C(=O)COc1cc(Cl)ccc1C(=O)NCCN1CCN(Cc2ccc(Cl)c(Cl)c2)CC1 (as salt: hydrochloride) [Example 3, 4-Chloro-N-{2-[4-(3,4-dichlorobenzyl)-1-piperazinyl]ethyl}-2-[2-(dimethylamino)-2-oxoethoxy]benzamide dihydrochloride]
137 to 138 | CNC(=O)COc1cc(Cl)ccc1C(=O)NCCN1CCN(Cc2ccc(Cl)c(Cl)c2)CC1 [Example 6, 4-Chloro-N-{2-[4-(3,4-dichlorobenzyl)-1-piperazinyl]ethyl}-2-[2-(methylamino)-2-oxoethoxy]benzamide]
228 to 229 | CN(C)C(=O)COc1cc(Cl)ccc1C(=O)NCCN1CCN(C(c2ccccc2)c2ccccc2)CC1 (as salt: hydrochloride) [Example 14, N-[2-(4-Benzhydryl-1-piperazinyl)ethyl]-4-chloro-2-[2-(dimethylamino)-2-oxoethoxy]benzamide trihydrochloride]
216 to 217 | CC(c1ccc(Cl)cc1)N1CCN(CCNC(=O)c2ccc(Cl)cc2OCC(=O)N(C)C)CC1 (stereo not drawn) (as salt: hydrochloride) [Example 9, 4-Chloro-N-(2-{4-[1-(4-chlorophenyl)ethyl]-1-piperazinyl}ethyl)-2-[2-(dimethylamino)-2-oxoethoxy]benzamide hydrochloride]
159 to 160 | CN(C)C(=O)COc1cc(Cl)ccc1C(=O)NCCN1CCN(CCc2ccccc2)CC1 [Example 1, 4-Chloro-2-[2-(dimethylamino)-2-oxoethoxy]-N-[2-(4-phenethyl-1-piperazinyl)ethyl]benzamide]
252 to 253 | CN(C)C(=O)COc1cc(Cl)ccc1C(=O)N(C)CCN1CCN(Cc2ccc(Cl)c(Cl)c2)CC1 (as salt: hydrochloride) [Example 13, 4-Chloro-N-{2-[4-(3,4-dichlorobenzyl)-1-piperazinyl]ethyl}-2-[2-dimethylamino)-2-oxoethoxy]-N-methylbenzamide trihydrochloride]
157 to 158 | O=C(NCCN1CCN(Cc2ccc(Cl)c(Cl)c2)CC1)c1ccc(Cl)cc1OCC(=O)N1CCCC1 [Example 7, 4-Chloro-N-{2-[4-(3,4-dichlorobenzyl)-1-piperazinyl]ethyl}-2-[2-oxo-2-(1-pyrrolidinyl)ethoxy]benzamide]
118 to 120 | O=C(O)COc1cc(Cl)ccc1C(=O)NCCN1CCN(Cc2ccc(Cl)c(Cl)c2)CC1 [Example 2, 2-{5-Chloro-2-[({2-[4-(3,4-dichlorobenzyl)-1-piperazinyl]ethyl}amino)carbonyl]phenoxy}acetic acid]
185 to 188 | CCN(CC)C(=O)COc1cc(Cl)ccc1C(=O)NCCN1CCN(Cc2ccc(Cl)c(Cl)c2)CC1 (as salt: hydrochloride) [Example 10, dihydrochloride]
220 to 221 | CC1CN(Cc2ccc(Cl)c(Cl)c2)C(C)CN1CCNC(=O)c1ccc(Cl)cc1OCC(=O)N(C)C (stereo not drawn) (as salt: hydrochloride) [Example 16, E-4-Chloro-N-{2-[4-(3,4-dichlorobenzyl)-2,5-dimethyl-1-piperazinyl]ethyl}-2-[2-(dimethylamino)-2-oxoethoxy]benzamide dihydrochloride]
214 to 216 | O=C(O)CNC(=O)COc1cc(Cl)ccc1C(=O)NCCN1CCN(Cc2ccc(Cl)c(Cl)c2)CC1 [Example 12, 2-[(2-{5-Chloro-2-[({2-[4-(3,4-dichlorobenzyl)-1-piperazinyl]ethyl}amino)carbonyl]phenoxy}acetyl)amino]acetic acid]
120 to 122 | NC(=O)COc1cc(Cl)ccc1C(=O)NCCN1CCN(Cc2ccc(Cl)c(Cl)c2)CC1 [Example 8, 2-(2-Amino-2-oxoethoxy)-4-chloro-N-{2-[4-(3,4-dichlorobenzyl)-1-piperazinyl]ethyl}benzamide]
220 to 222 | CN(C)CCN(C)C(=O)COc1cc(Cl)ccc1C(=O)NCCN1CCN(Cc2ccc(Cl)c(Cl)c2)CC1
115 to 116 | CC(CO)NC(=O)COc1cc(Cl)ccc1C(=O)NCCN1CCN(Cc2ccc(Cl)c(Cl)c2)CC1 (stereo not drawn) [Example 4, 4-Chloro-N-{2-[4-(3,4-dichlorobenzyl)-1-piperazinyl]ethyl}-2-{2-[(2-hydroxy-1-methylethyl)amino]-2-oxoethoxy}benzamide]

— patent US6562825B1, “Piperazine derivatives as modulators of chemokine receptor activity” (Astrazeneca UK Limited, priority 1999, dated 2003)
